Two compounds from US11773127B2, “Compounds and methods for treating bacterial infections” (Washington University, priority 2017, dated 2023) can be followed below.

As a reminder, the inhibition is the relative decrease from the control value, in per cent. What is called Kd is the free concentration of one partner at which half of the binding sites on the other are occupied at equilibrium, for simple one-to-one binding.

Structures are written as SMILES.

The target in assay [1] is T1, FmlHLD (Escherichia coli, UniProt P77588).
T1 construct: 6xHis (C); made in house; host or cells: E. coli C600, periplasm, pTRC99a
Nature of the assay: biochemical. Format: binding, E. coli. The method, boiled down: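 Sialidase-treated bovine submaxillary mucin (ds-BSM) coated wells, BSA-blocked, then biotinylated FmlH^LD (20 μg/mL) with or without compound for 1 h at room temperature. Bound lectin detected by streptavidin-HRP/TMB, A450.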

The next assay relates to CFT073. Put plainly: Murine chronic UTI (chronic cystitis) model, bacterial titers in bladder and kidney. The conditions noted are these: 50 mg/kg transurethral, 6 hours post treatment, relative to vehicle control. Format: in vivo, C3H/HeN mice. How it is done: To assess therapeutic efficacy, galactosides were evaluated for their ability to reduce bacterial burdens in the urinary tracts of C3H/HeN mice during chronic UTI. 7-8 week old female C3H/HeN mice were obtained from Envigo (Indianapolis, IN). Mice were anesthetized and inoculated via transurethral catheterization with 50 μl of CFT073 bacterial suspension (˜1-2*10^8 CFU in total) in phosphate-buffered saline (PBS). Chronic cystitis in C3H/HeN mice was defined as urine titers of >10^4 CFU/ml lasting at least two to four weeks, as well as bladder inflammation and edema at euthanasia. […] Accordingly, high levels of CFT073 kidney colonization were also observed in control (vehicle-treated) animals. […] Compounds tested were: 29β-NAc (50 mg/kg), mannoside 4Z269 (a type 1 pilus adhesin FimH inhibitor, 50 mg/kg), or 29β-NAc+4Z269. Mice were sacrificed 6 hours post treatment and bacteria colonizing the bladder or kidney were plated for quantification. Data are presented in FIG. 9, panels A and B, as bacterial titers of CFT073 in each organ in each condition. The horizontal lines represent the means. Asterisks indicate significance (*P<0.05, **P<0.01, ***P<0.001, ****P<0.0001, two-tailed Mann-Whitney U test). Each condition was measured in two or three independent experiments with 4 or 5 mice per group per experiment.

Assay [2] concerns the target T1, FmlHLD. Put plainly: Immunofluorescence of FmlHLD binding to human bladder and kidney tissue. The conditions noted are these: 50 μg/ml FmlHLD WT incubated with 100 μM compound. Also on record: species or system E. coli. How it is done:
The relevance of FmlH and FmlH-targeting galactosides in human UTI was assessed by performing immunofluorescence analysis of wild-type (WT) FmlHLD or mutant (K132Q) FmlHLD binding to human bladder and non-malignant kidney biopsied tissue in the presence or absence of 29β-NAc.
Frozen, de-identified human bladder and kidney sections were obtained from the Tissue Procurement Core and stored stably at −80° C. These tissue section slides were removed from the freezer and allowed to thaw at room temperature for 10-20 min. After applying a hydrophobic barrier pen around the tissue, slides were rehydrated in 200 μl buffer (5% BSA, 0.2% Triton X-100 in PBS) for 10 min. Buffer was gently aspirated and slides were blocked for 1 hr at room temperature with 200 μl buffer. Thereafter, buffer was gently aspirated and slides were incubated with 200 μl sample overnight at 4° C. Samples diluted in buffer included 50 μg/ml FmlHLD wild-type (WT), 50 μg/ml FmlHLD K132Q, and 50 μg/ml FmlHLD WT incubated with 100 μM 29β-NAc. Samples were gently aspirated and slides were washed three times in buffer for 5 min each. Next, slides were incubated with a mouse anti-FmlH polyclonal antibody (1:500 dilution in buffer) for 1 hr at room temperature. […]

The target in assay [3] is T1, FmlHLD. Nature of the assay: biochemical. The conditions noted are these: for Kd: immobilized ser-TF. Format: binding, E. coli. The source says:
Bio-layer interferometry (BLI) was used to quantitate the binding affinity of select galactosides to FmlH.
Thereafter, pins were dipped in PBS for 120 s and transferred to protein samples (varying concentration of FmlHLD or fixed concentration of FmlHLD with varying concentration of galactoside compounds) for association for 300-600 s.

In assay [4] the target is T2, FmlH lectin domain (FmlH^LD; first 182 amino acids of CFT073 FmlH = signal sequence and lectin domain, C-terminal 6×-his tag, wild-type, biotinylated) (Escherichia coli, UniProt A0A0H2V7F6).
T2 construct: biotinylated for ELISA; wild type
Nature of the assay: ELISA-based competition assay: inhibition of biotinylated FmlH lectin domain binding to surface-immobilized desialylated bovine submaxillary mucin (ds-BSM). Also on record: species or system E. coli (uropathogenic, urosepsis isolate CFT073). The conditions noted are these: read-out: FmlH (FmlH^LD) lectin domain (LD) IC50, FIG. 14, 20 μg/mL biotinylated FmlH^LD, compounds serially diluted 2×, 1 hour at room temperature, ds-BSM coated wells, absorbance 450 nm. How it is done: Thereafter, wells were incubated with 200 μl blocking buffer (PBS+1% BSA) for 2 hours at 23° C., followed by incubation with 100 μl biotinylated FmlHLD diluted in blocking buffer to 20 μg/ml in the presence or absence of the tested compounds for 1 hr at 23° C. After washing 3× with PBS+0.05% TWEEN-20, 100 μl Streptavidin-HRP conjugate (BD Biosciences; 1:2000 dilution in blocking buffer) was added to each well for 1 hr at 23° C. After a final round of washing, plates were developed with 100 μl Tetramethylbenzidine (TMB, BD Biosciences) substrate, quenched within 1-2 min with 50 μl […], and absorbance measured at 450 nm.
Briefly, 1 μg bovine submaxillary mucin (Sigma) in 100 uL PBS were incubated with Immulon 4HBX 96-well plates overnight prior to treatment with 1 mU Arthrobacter ureafaciens sialidase for 1 hour at 37° C. to remove terminal sialic acid sugars. Wells were then blocked with 200 μL PBS+1% BSA for 2 hours at room temperature. Biotinylated FmlH^LD was diluted to 20 μg/mL in blocking buffer and incubated in the presence or absence of compounds serially diluted 2× down eight rows for 1 hour at room temperature. […] Total bound portion concentration was measured by the absorbance at 450 nm. IC50s were determined using the Graphpad Prism software.
Background: An ELISA detects its analyte on a solid surface through an enzyme-linked reagent.

T1 sequence (P77588 25-182): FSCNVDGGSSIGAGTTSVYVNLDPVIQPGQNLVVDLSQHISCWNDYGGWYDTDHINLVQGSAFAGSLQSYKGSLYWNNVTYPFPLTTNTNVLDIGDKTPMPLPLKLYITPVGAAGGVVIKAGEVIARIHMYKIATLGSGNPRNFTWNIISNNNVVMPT
T2 sequence (A0A0H2V7F6 entry or part of it): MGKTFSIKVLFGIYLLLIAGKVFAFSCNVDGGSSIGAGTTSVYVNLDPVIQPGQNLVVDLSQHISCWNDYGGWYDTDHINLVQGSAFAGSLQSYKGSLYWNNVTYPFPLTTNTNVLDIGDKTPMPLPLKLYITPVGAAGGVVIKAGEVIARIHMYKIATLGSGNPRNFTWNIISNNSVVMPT

Regarding `CC(=O)N[C@H]1[C@H](Oc2ccccc2-c2cccc(C(=O)O)c2)O[C@H](CO)[C@H](O)[C@@H]1O` [Compound 29β-NAc, 2′-(2-acetamido-2-deoxy-β-D-galactopyranosyloxy)-[1,1′-Biphenyl]-3-carboxylic acid], at FmlHLD [1] (ELISA-based competition assay), the “inhibitory potency against FmlH, in words” value is “most potent”. The compound further displayed an IC50 on FmlHLD [1] (IC50 (μM), Table 5, Gal and GalNAc inhibition of FmlH) of 0.64 µM. Moreover, on FmlHLD [1] (read-out: PI1 (percent inhibition), galactoside at 1 μM, mean with standard error of the mean), the inhibition at 1 µM was 54.7 ± 2.8%. Besides, at FmlHLD [1] (read-out: PI10 (percent inhibition), galactoside at 10 μM, mean with standard error of the mean), the inhibition at 10 µM stood at 93%. At FmlHLD [1] (read-out: PI100 (percent inhibition), galactoside at 100 μM, mean with standard error of the mean), the inhibition at 100 µM was 99.5 ± 2.2%. Moreover, in the assay on CFT073, the “bacterial titers of CFT073 in the bladder” value is “significant reduction of CFT073 in the bladders” and the “bacterial titers of CFT073 in the kidney” value was “even greater clearance of CFT073 from the kidneys”. Also, the “FmlHLD binding to human kidney tissue” value at FmlHLD [2] is “prevented binding to human kidney tissue”. Also, on FmlHLD [3] (BLI Kd ratio), the “enhancement in binding affinity relative to Gal” value is reported as ~7,800 fold. Further, the Kd at FmlHLD [3] (Kd (μM), inhibitory constants, fixed FmlHLD, varying galactoside in solution) is 0.089 µM. Besides, at FmlHLD [3] (Kd, galactoside in solution), the dissociation constant (Kd) is approximately 0.09 µM.

For the compound `CC(=O)N[C@H]1[C@H](Oc2ccccc2-c2cccc(C(=O)O)c2)O[C@H](CO)[C@H](O)[C@@H]1O` [D00014 row 1, 2′-(2-acetamido-2-deoxy-β-D-galactopyranosyloxy)-[1,1′-Biphenyl]-3-carboxylic acid], the IC50 in assay [4] worked out at 650 nM.
